Data as given in ChEMBL document CHEMBL1201862, “PubChem BioAssay data set” (2004).
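48-hour exposure; five concentrations; linearly interpolated endpoints. At the GI50, growth is halved.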 The source made the active and inactive calls. No stated cut-off is given here; in the data, active = GI50 up to about 1.1 µM and inactive = higher.

How the values were obtained:
Test in all cases: growth of human tumour cells (NCI), 48 h
[1] = test system: OVCAR-5
[2] = test system: NCI-H522
[3] = test system: 786-0
[4] = test system: ACHN
[5] = test system: SK-OV-3
[6] = test system: HOP-18
[7] = test system: SN12C
[8] = test system: KM-20L2
[9] = test system: SK-MEL-2
[10] = test system: SF-295
[11] = test system: U-251
[12] = test system: M19-MEL
[13] = test system: UO-31
[14] = test system: KM12
[15] = test system: RXF 393
[16] = test system: NCI-H226
[17] = test system: UACC-257
[18] = test system: NCI-H460
[19] = test system: OVCAR-4
[20] = test system: HL-60
[21] = test system: SR
[22] = test system: LXFL 529
[23] = test system: K562
[24] = test system: SF-539
[25] = test system: RPMI-8226
[26] = test system: SK-MEL-5
[27] = test system: UACC-62
[28] = test system: IGROV-1
[29] = test system: HT-29
[30] = test system: DMS-114
[31] = test system: RXF 631
[32] = test system: HCT-116
[33] = test system: OVCAR-3
[34] = test system: CCRF-CEM
[35] = test system: SK-MEL-28
[36] = test system: SNB-75
[37] = test system: MOLT-4
[38] = test system: SF-268
[39] = test system: HCT-15
[40] = test system: HCC 2998
[41] = test system: HOP-92
[42] = test system: DLD-1
[43] = test system: HOP-62
[44] = test system: XF498
[45] = test system: M14
[46] = test system: SNB-78
[47] = test system: CAKI-1
[48] = test system: Malme-3M
[49] = test system: OVCAR-8
[50] = test system: EKVX
[51] = test system: COLO 205
[52] = test system: TK-10
[53] = test system: A498
[54] = test system: SW-620
[55] = test system: LOX IMVI
[56] = test system: SNB-19
[57] = test system: NCI-H23
[58] = test system: A549
[59] = test system: DMS-273

## O=[N+]([O-])c1ccc(Sc2c3ccccc3nc3cc(Cl)ccc23)cc1
[1]
  GI50: > 10 µM (inactive)
[2]
  GI50: > 10 µM (inactive)
[3]
  GI50: > 10 µM (inactive)
[4]
  GI50: > 10 µM (inactive)
[5]
  GI50: > 10 µM (inactive)
[6]
  GI50: > 10 µM (inactive)
[7]
  GI50: > 10 µM (inactive)
[8]
  GI50: > 10 µM (inactive)
[9]
  GI50: > 10 µM (inactive)
[10]
  GI50: > 10 µM (inactive)
[11]
  GI50: > 10 µM (inactive)
[12]
  GI50: > 10 µM (inactive)
[13]
  GI50: > 10 µM (inactive)
[14]
  GI50: > 10 µM (inactive)
[15]
  GI50: 37.5 µM (inactive)
[16]
  GI50: > 10 µM (inactive)
[17]
  GI50: > 10 µM (inactive)
[18]
  GI50: > 10 µM (inactive)
[19]
  GI50: > 10 µM (inactive)
[20]
  GI50: 40.9 µM (inactive)
[21]
  GI50: 25.7 µM (inactive)
[22]
  GI50: > 10 µM (inactive)
[23]
  GI50: > 10 µM (inactive)
[24]
  GI50: > 10 µM (inactive)
[25]
  GI50: > 100 µM (inactive)
[26]
  GI50: > 10 µM (inactive)
[27]
  GI50: > 10 µM (inactive)
[28]
  GI50: > 10 µM (inactive)
[29]
  GI50: > 100 µM (inactive)
[30]
  GI50: > 10 µM (inactive)
[31]
  GI50: > 10 µM (inactive)
[32]
  GI50: > 10 µM (inactive)
[33]
  GI50: > 10 µM (inactive)
[34]
  GI50: 32.9 µM (inactive)
[35]
  GI50: > 10 µM (inactive)
[36]
  GI50: 27.9 µM (inactive)
[37]
  GI50: 34.4 µM (inactive)
[38]
  GI50: > 10 µM (inactive)
[39]
  GI50: > 10 µM
[40]
  GI50: > 10 µM (inactive)
[41]
  GI50: 65.2 µM (inactive)
[42]
  GI50: > 10 µM (inactive)
[43]
  GI50: > 10 µM (inactive)
[44]
  GI50: 32.7 µM (inactive)
[45]
  GI50: > 10 µM (inactive)
[46]
  GI50: > 10 µM (inactive)
[47]
  GI50: > 10 µM (inactive)
[48]
  GI50: > 10 µM (inactive)
[49]
  GI50: > 10 µM (inactive)
[50]
  GI50: > 10 µM (inactive)
[51]
  GI50: > 10 µM (inactive)
[52]
  GI50: > 10 µM (inactive)
[53]
  GI50: > 10 µM (inactive)
[54]
  GI50: > 10 µM (inactive)
[55]
  GI50: > 10 µM (inactive)
[56]
  GI50: > 10 µM (inactive)

## O=C(NC1C(=O)NNC1c1cccc([N+](=O)[O-])c1)c1ccccc1 (stereo not drawn)
[1]
  GI50: > 100 µM (inactive)
[3]
  GI50: > 100 µM (inactive)
[4]
  GI50: > 100 µM (inactive)
[6]
  GI50: > 100 µM (inactive)
[7]
  GI50: > 100 µM (inactive)
[8]
  GI50: > 100 µM (inactive)
[9]
  GI50: > 100 µM (inactive)
[10]
  GI50: > 100 µM (inactive)
[11]
  GI50: > 100 µM (inactive)
[12]
  GI50: > 100 µM (inactive)
[13]
  GI50: > 100 µM (inactive)
[14]
  GI50: > 100 µM (inactive)
[15]
  GI50: > 100 µM (inactive)
[16]
  GI50: > 100 µM (inactive)
[17]
  GI50: > 100 µM (inactive)
[18]
  GI50: > 100 µM (inactive)
[19]
  GI50: > 100 µM (inactive)
[20]
  GI50: 90.8 µM (inactive)
[22]
  GI50: > 100 µM (inactive)
[25]
  GI50: > 100 µM (inactive)
[26]
  GI50: > 100 µM (inactive)
[27]
  GI50: > 100 µM (inactive)
[28]
  GI50: > 100 µM (inactive)
[29]
  GI50: > 100 µM (inactive)
[30]
  GI50: > 100 µM (inactive)
[31]
  GI50: > 100 µM (inactive)
[32]
  GI50: > 100 µM (inactive)
[33]
  GI50: > 100 µM (inactive)
[34]
  GI50: > 100 µM (inactive)
[35]
  GI50: > 100 µM (inactive)
[36]
  GI50: > 100 µM (inactive)
[37]
  GI50: > 100 µM (inactive)
[38]
  GI50: > 100 µM (inactive)
[40]
  GI50: > 100 µM (inactive)
[41]
  GI50: > 100 µM (inactive)
[42]
  GI50: > 100 µM (inactive)
[43]
  GI50: > 100 µM (inactive)
[44]
  GI50: > 100 µM (inactive)
[45]
  GI50: > 100 µM (inactive)
[46]
  GI50: > 100 µM (inactive)
[48]
  GI50: > 100 µM (inactive)
[49]
  GI50: > 100 µM (inactive)
[57]
  GI50: > 100 µM (inactive)
[50]
  GI50: > 100 µM (inactive)
[58]
  GI50: > 100 µM (inactive)
[51]
  GI50: > 100 µM (inactive)
[52]
  GI50: > 100 µM (inactive)
[54]
  GI50: > 100 µM (inactive)
[55]
  GI50: > 100 µM (inactive)
[56]
  GI50: > 100 µM (inactive)

## COc1cc([C@@H]2c3cc4c(cc3[C@@H](NCc3ccccc3)C3COC(=O)[C@@H]32)OCO4)cc(OC)c1O (stereo partly drawn)
[1]
  GI50: 29 µM (inactive)
[3]
  GI50: 3.47 µM (inactive)
[4]
  GI50: 1.17 µM (inactive)
[5]
  GI50: 6.52 µM (inactive)
[7]
  GI50: 3.28 µM (inactive)
[8]
  GI50: 17.9 µM (inactive)
[9]
  GI50: 23.4 µM (inactive)
[10]
  GI50: 4.03 µM (inactive)
[11]
  GI50: 3.71 µM (inactive)
[12]
  GI50: 14.1 µM (inactive)
[13]
  GI50: 7.08 µM (inactive)
[14]
  GI50: 12.8 µM (inactive)
[15]
  GI50: 20.8 µM (inactive)
[16]
  GI50: 3.46 µM (inactive)
[17]
  GI50: 27.1 µM (inactive)
[18]
  GI50: 0.547 µM (active)
[19]
  GI50: 38.2 µM (inactive)
[20]
  GI50: 2.74 µM (inactive)
[21]
  GI50: 0.345 µM (active)
[22]
  GI50: 19.3 µM (inactive)
[23]
  GI50: 16.6 µM (inactive)
[24]
  GI50: 6 µM (inactive)
[25]
  GI50: 3.8 µM (inactive)
[26]
  GI50: 11.8 µM (inactive)
[27]
  GI50: 3.83 µM (inactive)
[28]
  GI50: 21.3 µM (inactive)
[59]
  GI50: 1.68 µM (inactive)
[29]
  GI50: 16.4 µM (inactive)
[30]
  GI50: 8.41 µM (inactive)
[31]
  GI50: 3.44 µM (inactive)
[32]
  GI50: 14 µM (inactive)
[33]
  GI50: 17.8 µM (inactive)
[34]
  GI50: 3.13 µM (inactive)
[35]
  GI50: 25 µM (inactive)
[36]
  GI50: 6.21 µM (inactive)
[37]
  GI50: 0.891 µM (active)
[38]
  GI50: 7.19 µM (inactive)
[39]
  GI50: 6.34 µM
[40]
  GI50: 17.1 µM (inactive)
[41]
  GI50: 5.83 µM (inactive)
[42]
  GI50: 21.6 µM (inactive)
[43]
  GI50: 4 µM (inactive)
[44]
  GI50: 13.2 µM (inactive)
[45]
  GI50: 6.65 µM (inactive)
[46]
  GI50: 34.9 µM (inactive)
[47]
  GI50: 2.24 µM (inactive)
[48]
  GI50: 11.2 µM (inactive)
[49]
  GI50: 10.8 µM (inactive)
[57]
  GI50: 3.64 µM (inactive)
[50]
  GI50: 13.1 µM (inactive)
[58]
  GI50: 1.41 µM (inactive)
[51]
  GI50: 27.2 µM (inactive)
[52]
  GI50: 26 µM (inactive)
[53]
  GI50: 6.05 µM (inactive)
[54]
  GI50: 8.57 µM (inactive)
[55]
  GI50: 5.25 µM (inactive)
[56]
  GI50: 4.86 µM (inactive)
